System: human adult primary fibroblast cells
Assay: Proliferative analysis (population doubling, cell counts per passage) under standard and oxidative stress conditions
Format: cell-based
Procedure: Analysis of cellular proliferation rate and telomere length in cultures of human adult primary fibroblast cells treated with lutein under standard and oxidative stress conditions. Primary cultures of adult human fibroblast were established. Cells are seeded at 2×10^3 cells/cm2 in GlutaMax™ high glucose Dulbecco's modified Eagle's medium (DMEM, Gibco®), and supplemented with 10% fetal bovine serum (FBS, HyClone, Thermo Scientific), penicillin (100 U/ml) and reptomycin (1000 U/ml). Media is renewed every 2-3 days and cells passaged at sub-confluence (70-80%) every 4-5 days. Compounds or vehicle control are added to the cells in culture. Cell growth is monitored for each condition by counting cell numbers at each passage using a Countess™ cell counter (Invitrogen). Population doubling (PD) was calculated with the formula PD=(log (Nn/Nn-1))/log 2 where n is the passage; and N the number of cells. One PD is equivalent to one round of cell replication. Eight independent condition were evaluated by proliferative Analysis: Standard cell culture condition+Lutein−10 μg/ml (LUT10) Standard cell culture condition+Lutein−5 μg/ml (LUT5) Standard cell culture condition+Lutein−1 μg/ml (LUT1) Standard cell culture condition+Lutein−10 μg/ml+10 μM H2O2 (LUT10+H2O2) Standard cell culture condition+Lutein−5 μg/ml+10 μM H2O2(LUT5+H2O2) Standard cell culture condition+Lutein−1 μg/ml+10 μM H2O2 (LUT1+H2O2) Cells were expanded during eight weeks under standard and oxidative (10 μM H2O2) cell culture condition as described previously. Fresh treatments were prepared and added to the cells at every passage and also when media was renewed. Stock solution of 10 mg/ml of the compound was prepared in DMSO and the different treatments were prepared from that stock.

[1] = Lutein 1 μg/ml + 10 μM H2O2, week 1 (P1)
[2] = Lutein 1 μg/ml + 10 μM H2O2, week 2 (P2)
[3] = Lutein 1 μg/ml + 10 μM H2O2, week 3 (P3)
[4] = Lutein 1 μg/ml + 10 μM H2O2, week 4 (P4)
[5] = Lutein 1 μg/ml + 10 μM H2O2, week 5 (P5)
[6] = Lutein 1 μg/ml + 10 μM H2O2, week 6 (P6)
[7] = Lutein 1 μg/ml + 10 μM H2O2, week 7 (P7)
[8] = Lutein 1 μg/ml + 10 μM H2O2, week 8 (P8)
[9] = Lutein 1 μg/ml, standard culture, week 1 (P1)
[10] = Lutein 1 μg/ml, standard culture, week 2 (P2)
[11] = Lutein 1 μg/ml, standard culture, week 3 (P3)
[12] = Lutein 1 μg/ml, standard culture, week 4 (P4)
[13] = Lutein 1 μg/ml, standard culture, week 5 (P5)
[14] = Lutein 1 μg/ml, standard culture, week 6 (P6)
[15] = Lutein 1 μg/ml, standard culture, week 7 (P7)
[16] = Lutein 1 μg/ml, standard culture, week 8 (P8)
[17] = Lutein 5 μg/ml + 10 μM H2O2, week 1 (P1)
[18] = Lutein 5 μg/ml + 10 μM H2O2, week 2 (P2)
[19] = Lutein 5 μg/ml + 10 μM H2O2, week 3 (P3)
[20] = Lutein 5 μg/ml + 10 μM H2O2, week 4 (P4)
[21] = Lutein 5 μg/ml + 10 μM H2O2, week 5 (P5)
[22] = Lutein 5 μg/ml + 10 μM H2O2, week 6 (P6)
[23] = Lutein 5 μg/ml + 10 μM H2O2, week 7 (P7)
[24] = Lutein 5 μg/ml + 10 μM H2O2, week 8 (P8)
[25] = Lutein 5 μg/ml, standard culture, week 1 (P1)
[26] = Lutein 5 μg/ml, standard culture, week 2 (P2)
[27] = Lutein 5 μg/ml, standard culture, week 3 (P3)
[28] = Lutein 5 μg/ml, standard culture, week 4 (P4)
[29] = Lutein 5 μg/ml, standard culture, week 5 (P5)
[30] = Lutein 5 μg/ml, standard culture, week 6 (P6)
[31] = Lutein 5 μg/ml, standard culture, week 7 (P7)
[32] = Lutein 5 μg/ml, standard culture, week 8 (P8)
[33] = Lutein 10 μg/ml + 10 μM H2O2, week 1 (P1)
[34] = Lutein 10 μg/ml + 10 μM H2O2, week 2 (P2)
[35] = Lutein 10 μg/ml + 10 μM H2O2, week 3 (P3)
[36] = Lutein 10 μg/ml + 10 μM H2O2, week 4 (P4)
[37] = Lutein 10 μg/ml + 10 μM H2O2, week 5 (P5)
[38] = Lutein 10 μg/ml + 10 μM H2O2, week 6 (P6)
[39] = Lutein 10 μg/ml + 10 μM H2O2, week 7 (P7)
[40] = Lutein 10 μg/ml + 10 μM H2O2, week 8 (P8)
[41] = Lutein 10 μg/ml, standard culture, week 1 (P1)
[42] = Lutein 10 μg/ml, standard culture, week 2 (P2)
[43] = Lutein 10 μg/ml, standard culture, week 3 (P3)
[44] = Lutein 10 μg/ml, standard culture, week 4 (P4)
[45] = Lutein 10 μg/ml, standard culture, week 5 (P5)
[46] = Lutein 10 μg/ml, standard culture, week 6 (P6)
[47] = Lutein 10 μg/ml, standard culture, week 7 (P7)
[48] = Lutein 10 μg/ml, standard culture, week 8 (P8)

CC1=C[C@H](O)CC(C)(C)[C@H]1/C=C/C(C)=C/C=C/C(C)=C/C=C/C=C(C)/C=C/C=C(C)/C=C/C1=C(C)C[C@@H](O)CC1(C)C [Lutein]
Cumulative Population Doubling per passage [1]: 3.42 | Population Doubling per passage [1]: 3.42 | Total number of cells per passage [1]: 1.60E+06 | Cumulative Population Doubling per passage [2]: 6.29 | Population Doubling per passage [2]: 2.87 | Total number of cells per passage [2]: 1.17E+07 | Cumulative Population Doubling per passage [3]: 9.16 | Population Doubling per passage [3]: 2.37 | Total number of cells per passage [3]: 8.60E+07 | Cumulative Population Doubling (Table 7A) (Lutein 1 μg/ml + 10 μM H2O2, week 4): 12.3 | Cumulative Population Doubling per passage [4]: 12.28 | Population Doubling per passage [4]: 3.12 | Total number of cells per passage [4]: 7.46E+08 | Cumulative Population Doubling per passage [5]: 14.76 | Population Doubling per passage [5]: 2.49 | Total number of cells per passage [5]: 4.18E+09 | Cumulative Population Doubling per passage [6]: 17.41 | Population Doubling per passage [6]: 2.65 | Total number of cells per passage [6]: 2.62E+10 | Cumulative Population Doubling per passage [7]: 18.41 | Population Doubling per passage [7]: 1.00 | Total number of cells per passage [7]: 5.23E+10 | Cumulative Population Doubling (Table 7A) (Lutein 1 μg/ml + 10 μM H2O2, week 8): 20.7 | Cumulative Population Doubling per passage [8]: 20.72 | Population Doubling per passage [8]: 2.30 | Total number of cells per passage [8]: 2.58E+11 | Cumulative Population Doubling per passage [9]: 3.81 | Population Doubling per passage [9]: 3.81 | Total number of cells per passage [9]: 2.10E+06 | Cumulative Population Doubling per passage [10]: 7.31 | Population Doubling per passage [10]: 3.50 | Total number of cells per passage [10]: 2.38E+07 | Cumulative Population Doubling per passage [11]: 10.18 | Population Doubling per passage [11]: 3.57 | Total number of cells per passage [11]: 1.75E+08 | Cumulative Population Doubling (Table 7A) (Lutein 1 μg/ml, standard culture, week 4): 13.7 | Cumulative Population Doubling per passage [12]: 13.69 | Population Doubling per passage [12]: 3.50 | Total number of cells per passage [12]: 1.98E+09 | Cumulative Population Doubling per passage [13]: 15.71 | Population Doubling per passage [13]: 2.02 | Total number of cells per passage [13]: 8.04E+09 | Cumulative Population Doubling per passage [14]: 18.71 | Population Doubling per passage [14]: 3.00 | Total number of cells per passage [14]: 6.44E+10 | Cumulative Population Doubling per passage [15]: 21.39 | Population Doubling per passage [15]: 2.68 | Total number of cells per passage [15]: 4.12E+11 | Cumulative Population Doubling (Table 7A) (Lutein 1 μg/ml, standard culture, week 8): 24.1 | Cumulative Population Doubling per passage [16]: 24.13 | Population Doubling per passage [16]: 2.74 | Total number of cells per passage [16]: 2.75E+12 | Cumulative Population Doubling per passage [17]: 3.58 | Population Doubling per passage [17]: 3.58 | Total number of cells per passage [17]: 1.80E+06 | Cumulative Population Doubling per passage [18]: 6.91 | Population Doubling per passage [18]: 3.32 | Total number of cells per passage [18]: 1.80E+07 | Cumulative Population Doubling per passage [19]: 10.13 | Population Doubling per passage [19]: 3.22 | Total number of cells per passage [19]: 1.68E+08 | Cumulative Population Doubling (Table 7A) (Lutein 5 μg/ml + 10 μM H2O2, week 4): 13.5 | Cumulative Population Doubling per passage [20]: 13.54 | Population Doubling per passage [20]: 3.42 | Total number of cells per passage [20]: 1.79E+09 | Cumulative Population Doubling per passage [21]: 15.70 | Population Doubling per passage [21]: 2.16 | Total number of cells per passage [21]: 8.00E+09 | Cumulative Population Doubling per passage [22]: 17.84 | Population Doubling per passage [22]: 2.14 | Total number of cells per passage [22]: 3.52E+10 | Cumulative Population Doubling per passage [23]: 20.71 | Population Doubling per passage [23]: 2.87 | Total number of cells per passage [23]: 2.58E+11 | Cumulative Population Doubling (Table 7A) (Lutein 5 μg/ml + 10 μM H2O2, week 8): 23.1 | Cumulative Population Doubling per passage [24]: 23.06 | Population Doubling per passage [24]: 2.34 | Total number of cells per passage [24]: 1.31E+12 | Cumulative Population Doubling per passage [25]: 3.81 | Population Doubling per passage [25]: 3.81 | Total number of cells per passage [25]: 2.10E+06 | Cumulative Population Doubling per passage [26]: 6.47 | Population Doubling per passage [26]: 2.65 | Total number of cells per passage [26]: 1.33E+07 | Cumulative Population Doubling per passage [27]: 9.12 | Population Doubling per passage [27]: 2.65 | Total number of cells per passage [27]: 8.33E+07 | Cumulative Population Doubling (Table 7A) (Lutein 5 μg/ml, standard culture, week 4): 12.5 | Cumulative Population Doubling per passage [28]: 12.53 | Population Doubling per passage [28]: 3.42 | Total number of cells per passage [28]: 8.89E+09 | Cumulative Population Doubling per passage [29]: 15.02 | Population Doubling per passage [29]: 2.49 | Total number of cells per passage [29]: 4.98E+09 | Cumulative Population Doubling per passage [30]: 16.47 | Population Doubling per passage [30]: 1.45 | Total number of cells per passage [30]: 1.36E+10 | Cumulative Population Doubling per passage [31]: 18.15 | Population Doubling per passage [31]: 1.68 | Total number of cells per passage [31]: 4.35E+10 | Cumulative Population Doubling (Table 7A) (Lutein 5 μg/ml, standard culture, week 8): 21.3 | Cumulative Population Doubling per passage [32]: 21.26 | Population Doubling per passage [32]: 3.12 | Total number of cells per passage [32]: 3.77E+11 | Cumulative Population Doubling per passage [33]: 3.50 | Population Doubling per passage [33]: 3.50 | Total number of cells per passage [33]: 1.70E+06 | Cumulative Population Doubling per passage [34]: 6.92 | Population Doubling per passage [34]: 3.42 | Total number of cells per passage [34]: 1.81E+07 | Cumulative Population Doubling per passage [35]: 9.65 | Population Doubling per passage [35]: 2.74 | Total number of cells per passage [35]: 1.21E+08 | Cumulative Population Doubling (Table 7A) (Lutein 10 μg/ml + 10 μM H2O2, week 4): 13.1 | Cumulative Population Doubling per passage [36]: 13.07 | Population Doubling per passage [36]: 3.42 | Total number of cells per passage [36]: 1.29E+09 | Cumulative Population Doubling per passage [37]: 14.97 | Population Doubling per passage [37]: 1.90 | Total number of cells per passage [37]: 4.81E+09 | Cumulative Population Doubling per passage [38]: 16.97 | Population Doubling per passage [38]: 2.00 | Total number of cells per passage [38]: 1.93E+09 | Cumulative Population Doubling per passage [39]: 18.52 | Population Doubling per passage [39]: 1.55 | Total number of cells per passage [39]: 5.65E+10 | Cumulative Population Doubling (Table 7A) (Lutein 10 μg/ml + 10 μM H2O2, week 8): 20.8 | Cumulative Population Doubling per passage [40]: 20.83 | Population Doubling per passage [40]: 2.30 | Total number of cells per passage [40]: 2.79E+11 | Cumulative Population Doubling per passage [41]: 3.58 | Population Doubling per passage [41]: 3.58 | Total number of cells per passage [41]: 1.80E+06 | Cumulative Population Doubling per passage [42]: 6.70 | Population Doubling per passage [42]: 3.12 | Total number of cells per passage [42]: 1.56E+07 | Cumulative Population Doubling per passage [43]: 9.82 | Population Doubling per passage [43]: 3.12 | Total number of cells per passage [43]: 1.35E+08 | Cumulative Population Doubling (Table 7A) (Lutein 10 μg/ml, standard culture, week 4): 13.3 | Cumulative Population Doubling per passage [44]: 13.32 | Population Doubling per passage [44]: 3.50 | Total number of cells per passage [44]: 1.53E+09 | Cumulative Population Doubling per passage [45]: 15.75 | Population Doubling per passage [45]: 2.43 | Total number of cells per passage [45]: 8.27E+09 | Cumulative Population Doubling per passage [46]: 18.49 | Population Doubling per passage [46]: 2.74 | Total number of cells per passage [46]: 5.52E+10 | Cumulative Population Doubling per passage [47]: 21.18 | Population Doubling per passage [47]: 2.69 | Total number of cells per passage [47]: 3.57E+11 | Cumulative Population Doubling (Table 7A) (Lutein 10 μg/ml, standard culture, week 8): 23.9 | Cumulative Population Doubling per passage [48]: 23.92 | Population Doubling per passage [48]: 2.74 | Total number of cells per passage [48]: 2.38E+12 | Proliferation rate compared to control group (H2O2) (Lutein 10, 5 and 1 μg/ml + 10 μM H2O2 (oxidative culture conditions), after eight weeks): increase in proliferation rate | Proliferation rate compared to control (Ctrl) (Lutein 10, 5 and 1 μg/ml, standard culture conditions, after eight weeks): no difference

From patent US20220175693A1, “DIETARY SUPPLEMENT COMPRISING LUTEIN FOR TELOMERE PROTECTION, AND METHOD FOR PRODUCTION THEREOF” (BIOGEN EXTRACTS PRIVATE LIMITED, priority 2019, published 2022)
